Assay [1] deals with T1, EP2 receptor (Homo sapiens, UniProt P43116).
T1 construct: SF295 glioblastoma cells express high endogenous EP2 and no EP4; host or cells: SF295 glioblastoma cells
As to the kind of experiment: hEP2 cAMP assay (SF295 glioblastoma cells, HTRF cAMP, PGE2 stimulation). In kind it is cell-based. The note with it: antagonistic activity. Put shortly: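 HTRF cAMP readout gave % cAMP relative to DMSO, fitted to IC50 with duplicate points. Compounds were preincubated 45 min at room temperature with EP2-expressing, EP4-negative SF295 cells in IBMX (2 mM)-containing buffer before a 30 min challenge with PGE2 at 75 nM final, its EC80.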

Assay [2] deals with T2, EP4 receptor (Homo sapiens, UniProt P35408).
T2 construct: BT549 breast cancer cells, express high endogenous EP4 levels and very low EP2 levels; host or cells: BT549 breast cancer cells
T2 sequence (P35408 whole entry): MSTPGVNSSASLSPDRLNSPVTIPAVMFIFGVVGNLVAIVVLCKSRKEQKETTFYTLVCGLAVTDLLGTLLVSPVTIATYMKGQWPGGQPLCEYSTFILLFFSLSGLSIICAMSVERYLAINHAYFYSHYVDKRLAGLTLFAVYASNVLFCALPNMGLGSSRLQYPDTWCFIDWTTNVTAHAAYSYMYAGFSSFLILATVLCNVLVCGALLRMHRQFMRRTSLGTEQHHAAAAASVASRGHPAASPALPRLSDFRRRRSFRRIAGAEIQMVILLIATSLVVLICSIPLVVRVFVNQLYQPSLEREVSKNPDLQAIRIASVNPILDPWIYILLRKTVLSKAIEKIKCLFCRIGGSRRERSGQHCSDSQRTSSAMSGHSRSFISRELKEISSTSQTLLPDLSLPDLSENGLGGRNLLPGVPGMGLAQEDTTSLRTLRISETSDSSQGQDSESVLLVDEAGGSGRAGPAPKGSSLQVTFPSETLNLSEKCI
Description: hEP4 cAMP assay (BT549 breast cancer cells, HTRF cAMP, PGE2 stimulation). In kind it is cell-based. Conditions: antagonistic activity, PGE2 6 nM (EC80). In short, it runs like this:
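BT549 cells, with endogenous EP4 and very low EP2, were preincubated 45 min at room temperature with compound in HBSS/HEPES/BSA buffer with 2 mM IBMX. They were then stimulated 30 min with 6 nM PGE2 (EC80). cAMP was measured by HTRF competitive immunoassay against a calibrator; IC50 from duplicate dose-response as % of DMSO control.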
For orientation: Changes in cAMP serve as a functional read-out for many G protein-coupled receptors.

T1 sequence (P43116 whole entry): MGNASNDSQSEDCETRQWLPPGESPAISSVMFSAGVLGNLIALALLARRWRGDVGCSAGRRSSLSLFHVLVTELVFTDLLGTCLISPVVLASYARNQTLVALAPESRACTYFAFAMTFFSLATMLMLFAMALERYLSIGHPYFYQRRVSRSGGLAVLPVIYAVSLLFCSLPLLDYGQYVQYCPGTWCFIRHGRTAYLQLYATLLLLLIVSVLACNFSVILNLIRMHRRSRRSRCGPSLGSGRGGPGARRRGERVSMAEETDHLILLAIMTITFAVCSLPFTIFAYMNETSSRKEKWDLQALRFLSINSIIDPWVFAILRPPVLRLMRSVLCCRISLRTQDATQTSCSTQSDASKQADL

In general, IC50 refers to the concentration that gives 50% inhibition. Take `Cc1cc(-c2cc(NCCc3c(C)oc4c(C)cc(F)cc34)ncn2)sc1C(=O)O` [Example 2, 5-{6-[2-(5-Fluoro-2,7-dimethyl-benzofuran-3-yl)-ethylamino]-pyrimidin-4-yl}-3-methyl-thiophene-2-carboxylic acid]: the results for the IC50 in assay [1] and in assay [2] were 23 nM and 117 nM, respectively.
In the same order, the values of `Cc1cc(-c2cc(NCCc3c(C)sc4c(C)cccc34)ncn2)sc1C(=O)O` [Example 3, 5-{6-[2-(2,7-Dimethyl-benzo[b]thiophen-3-yl)-ethylamino]-pyrimidin-4-yl}-3-methyl-thiophene-2-carboxylic acid] are 18 nM and 222 nM.
`Cc1cc(-c2cc(NCCc3c(C)oc4c(C)cc(Cl)cc34)ncn2)sc1C(=O)O` [Example 4, 5-{6-[2-(5-Chloro-2,7-dimethyl-benzofuran-3-yl)-ethylamino]-pyrimidin-4-yl}-3-methyl-thiophene-2-carboxylic acid]: the concentration for half-maximal inhibition (IC50) in assay [1] worked out at 33 nM; in assay [2] it was 394 nM.
Take `CSc1cc(-c2cc(NCCc3c(C)sc4c(C)cccc34)ncn2)ccc1C(=O)O` [Example 14, 4-{6-[2-(2,7-Dimethyl-benzo[b]thiophen-3-yl)-ethylamino]-pyrimidin-4-yl}-2-methylsulfanyl-benzoic acid]: the results for the IC50 in assay [1] and in assay [2] were 6 nM and 105 nM, respectively.
In the case of `COc1ccc(Cl)c2c(CCNc3cc(-c4ccc(C(=O)O)c(SC)c4)ncn3)c(C)sc12` [Example 15, 4-{6-[2-(4-Chloro-7-methoxy-2-methyl-benzo[b]thiophen-3-yl)-ethylamino]-pyrimidin-4-yl}-2-methylsulfanyl-benzoic acid], the IC50 in assay [1] is 21 nM; in assay [2] it was 134 nM.
In the same order, the values of `CSc1cc(-c2cc(NCCc3c(C)oc4c(C)cc(F)cc34)ncn2)ccc1C(=O)O` [Example 16, 4-{6-[2-(5-Fluoro-2,7-dimethyl-benzofuran-3-yl)-ethylamino]-pyrimidin-4-yl}-2-methylsulfanyl-benzoic acid] are 21 nM and 189 nM.
Take `CSc1cc(-c2cc(NCCc3c(C)sc4c(C)cc(F)cc34)ncn2)ccc1C(=O)O` [Example 17, 4-{6-[2-(5-Fluoro-2,7-dimethyl-benzo[b]thiophen-3-yl)-ethylamino]-pyrimidin-4-yl}-2-methylsulfanyl-benzoic acid]: the IC50 in assay [1] came to 9 nM; in assay [2], 243 nM.
In the case of `CSc1cc(-c2cc(NCCc3c(C)oc4ccccc34)ncn2)ccc1C(=O)O` [Example 18, 4-{6-[2-(2-Methyl-benzofuran-3-yl)-ethylamino]-pyrimidin-4-yl}-2-methylsulfanyl-benzoic acid], the values for the IC50 in assay [1] and in assay [2] were 1 nM and 414 nM, respectively.
In the same order, the values of `CSc1cc(-c2cc(NCCc3c(C)sc4c(C)ccc(Cl)c34)ncn2)ccc1C(=O)O` [Example 19, 4-{6-[2-(4-Chloro-2,7-dimethyl-benzo[b]thiophen-3-yl)-ethylamino]-pyrimidin-4-yl}-2-methylsulfanyl-benzoic acid] are 83 nM and 468 nM.
For `CSc1cc(-c2cc(NCCc3c(C)sc4c(Cl)ccc(Cl)c34)ncn2)ccc1C(=O)O` [Example 20, 4-{6-[2-(4,7-Dichloro-2-methyl-benzo[b]thiophen-3-yl)-ethylamino]-pyrimidin-4-yl}-2-methylsulfanyl-benzoic acid], the figures for the IC50 in assay [1] and in assay [2] were 26 nM and 532 nM, respectively.
As for `CSc1cc(-c2cc(NCCc3c(C)sc4c(C)c(F)ccc34)ncn2)ccc1C(=O)O` [Example 21, 4-{6-[2-(6-Fluoro-2,7-dimethyl-benzo[b]thiophen-3-yl)-ethylamino]-pyrimidin-4-yl}-2-methylsulfanyl-benzoic acid], the IC50 in assay [1] was 24 nM; in assay [2], 564 nM.
In the same order, the values of `CCc1oc2c(C)cc(F)cc2c1CCNc1cc(-c2ccc(C(=O)O)c(SC)c2)ncn1` [Example 22, 4-{6-[2-(2-Ethyl-5-fluoro-7-methyl-benzofuran-3-yl)-ethylamino]-pyrimidin-4-yl}-2-methylsulfanyl-benzoic acid] are 172 nM and 661 nM.
As to `CSc1cc(-c2cc(NCCc3c(C)sc4c(Cl)cc(F)cc34)ncn2)ccc1C(=O)O` [Example 23, 4-{6-[2-(7-Chloro-5-fluoro-2-methyl-benzo[b]thiophen-3-yl)-ethylamino]-pyrimidin-4-yl}-2-methylsulfanyl-benzoic acid], the figures for the IC50 in assay [1] and in assay [2] were 27 nM and 667 nM, respectively.
In the case of `CSc1cc(-c2cc(NCCc3c(C)sc4ccccc34)ncn2)ccc1C(=O)O` [Example 24, 4-{6-[2-(2-Methyl-benzo[b]thiophen-3-yl)-ethylamino]-pyrimidin-4-yl}-2-methylsulfanyl-benzoic acid], the IC50 in assay [1] amounted to 4 nM; in assay [2], 795 nM.
For the compound `CCOc1cc(-c2cc(NCCc3c(C)sc4c(C)ccc(F)c34)ncn2)sc1C(=O)O` [Example 25, 3-Ethoxy-5-{6-[2-(4-fluoro-2,7-dimethyl-benzo[b]thiophen-3-yl)-ethylamino]-pyrimidin-4-yl}-thiophene-2-carboxylic acid], the IC50 amounted to 8 nM in assay [1] and 1 nM in assay [2].
In the case of `CCOc1cc(-c2cc(NCCc3c(C)sc4c(OC)ccc(F)c34)ncn2)sc1C(=O)O` [Example 28, 3-Ethoxy-5-{6-[2-(4-fluoro-7-methoxy-2-methyl-benzo[b]thiophen-3-yl)-ethylamino]-pyrimidin-4-yl}-thiophene-2-carboxylic acid], the IC50 in assay [1] came to 11 nM; in assay [2], 5 nM.
`CCOc1cc(-c2cc(NCCc3c(C)sc4c(C)ccc(Cl)c34)ncn2)sc1C(=O)O` [Example 29, 5-{6-[2-(4-Chloro-2,7-dimethyl-benzo[b]thiophen-3-yl)-ethylamino]-pyrimidin-4-yl}-3-ethoxy-thiophene-2-carboxylic acid]: the concentration for half-maximal inhibition (IC50) in assay [1] turned out to be 14 nM; in assay [2] it was 9 nM.
Consider `CCOc1cc(-c2cc(NCCc3c(C)sc4c(OC)ccc(Cl)c34)ncn2)sc1C(=O)O` [Example 30, 5-{6-[2-(4-Chloro-7-methoxy-2-methyl-benzo[b]thiophen-3-yl)-ethylamino]-pyrimidin-4-yl}-3-ethoxy-thiophene-2-carboxylic acid], for which the IC50 came to 8 nM in assay [1] and 11 nM in assay [2].
In the case of `CCOc1cc(-c2cc(NCCc3c(C)oc4c(OC)cc(F)c(F)c34)ncn2)sc1C(=O)O` [Example 31, 5-{6-[2-(4,5-Difluoro-7-methoxy-2-methyl-benzofuran-3-yl)-ethylamino]-pyrimidin-4-yl}-3-ethoxy-thiophene-2-carboxylic acid], the half-maximal inhibitory concentration (IC50) was 10 nM in assay [1] and 13 nM in assay [2].
For the compound `CCOc1cc(-c2cc(NCCc3c(C)sc4c(C)cc(F)cc34)ncn2)sc1C(=O)O` [Example 32, 3-Ethoxy-5-{6-[2-(5-fluoro-2,7-dimethyl-benzo[b]thiophen-3-yl)-ethylamino]-pyrimidin-4-yl}-thiophene-2-carboxylic acid], the IC50 in assay [1] was 2 nM; in assay [2], 13 nM.
For the compound `CCOc1cc(-c2cc(NCCc3csc4ccccc34)ncn2)sc1C(=O)O` [Example 33, 5-[6-(2-Benzo[b]thiophen-3-yl-ethylamino)-pyrimidin-4-yl]-3-ethoxy-thiophene-2-carboxylic acid], the IC50 in assay [1] was found to be 17 nM; in assay [2] it was 18 nM.
The like results for `CCOc1cc(-c2cc(NCCc3c(C)oc4c(OC)ccc(F)c34)ncn2)sc1C(=O)O` [Example 34, 3-Ethoxy-5-{6-[2-(4-fluoro-7-methoxy-2-methyl-benzofuran-3-yl)-ethylamino]-pyrimidin-4-yl}-thiophene-2-carboxylic acid] were, in that order, 6 nM and 22 nM.
On to `CCOc1cc(-c2cc(NCCc3c(C)oc4c(Cl)cccc34)ncn2)sc1C(=O)O` [Example 35, 5-{6-[2-(7-Chloro-2-methyl-benzofuran-3-yl)-ethylamino]-pyrimidin-4-yl}-3-ethoxy-thiophene-2-carboxylic acid], for which the IC50 stood at 2 nM in assay [1] and 36 nM in assay [2].
On to `CCOc1cc(-c2cc(NCCc3c(C)sc4c(C)cccc34)ncn2)sc1C(=O)O` [Example 36, 5-{6-[2-(2,7-Dimethyl-benzo[b]thiophen-3-yl)-ethylamino]-pyrimidin-4-yl}-3-ethoxy-thiophene-2-carboxylic acid], for which the values for the IC50 in assay [1] and in assay [2] were 4 nM and 44 nM, respectively.
In the case of `CCOc1cc(-c2cc(NCCc3c(C)oc4c(C)cc(F)cc34)ncn2)sc1C(=O)O` [Example 37, 3-Ethoxy-5-{6-[2-(5-fluoro-2,7-dimethyl-benzofuran-3-yl)-ethylamino]-pyrimidin-4-yl}-thiophene-2-carboxylic acid], the half-inhibitory concentration (IC50) in assay [1] turned out to be 2 nM; in assay [2], 49 nM.
In the case of `CCOc1cc(-c2cc(NCCc3c(C)oc4c(OC)cc(Cl)cc34)ncn2)sc1C(=O)O` [Example 38, 5-{6-[2-(5-Chloro-7-methoxy-2-methyl-benzofuran-3-yl)-ethylamino]-pyrimidin-4-yl}-3-ethoxy-thiophene-2-carboxylic acid], the values for the IC50 in assay [1] and in assay [2] were 12 nM and 80 nM, respectively.
Turning to `CCOc1cc(-c2cc(NCCc3c(CC)oc4c(C)cc(F)cc34)ncn2)sc1C(=O)O` [Example 39, 3-Ethoxy-5-{6-[2-(2-ethyl-5-fluoro-7-methyl-benzofuran-3-yl)-ethylamino]-pyrimidin-4-yl}-thiophene-2-carboxylic acid], the IC50 was 28 nM in assay [1] and 112 nM in assay [2].

Values taken from US11325899B2, “Benzofurane and benzothiophene derivatives as PGE2 receptor modulators” (IDORSIA PHARMACEUTICALS LTD, priority 2017, dated 2022).
